Data taken from ChEMBL document CHEMBL3351580, “Pyrano-isochromanones as IL-6 inhibitors: synthesis, in vitro and in vivo antiarthritic activity” (J Med Chem, 2014).
Values belong to the molecule of their own block, whether it stands above or below them. Calls of active or inactive are those of the source. No cut-off for these calls is given here.

Assays:
[1] = Inhibition of concanavalin A-induced cell proliferation of T cells (unknown origin) at 10 uM after 72 hrs by MTT assay; type: functional
[2] = Solubility in water; type: physicochemical
B-cell = test: Inhibition of LPS-induced cell proliferation of B cells (unknown origin) at 10 uM after 72 hrs by MTT assay; type: functional
THP-1 [3] = test: Inhibition of LPS-induced TNFalpha production in human THP1 cells after 24 hrs; type: functional, cell-based; details: THP-1, 24 h
THP-1 [4] = test: Inhibition of LPS-induced IL6 production in human THP1 cells after 24 hrs; type: functional, cell-based; details: THP-1, 24 h
Mus musculus [5] = test: Antiarthritic activity in DBA/1J mouse collagen-induced arthritis model assessed as reduction in TNFalpha level at 3 to 30 mg/kg, po administered once daily for 49 days starting from onset of disease and measured after 3 to 49 days of disease onset by ELISA method; type: functional, organism-based
Mus musculus [6] = test: Antiarthritic activity in BALB/c mouse assessed as reduction in SRBC-induced blood IL4 level administered orally once daily for 14 days measured 4 hrs post last dose by ELISA method; type: functional, organism-based
Mus musculus [7] = test: Antiarthritic activity in DBA/1J mouse collagen-induced arthritis model assessed as reduction in anticollagen antibody IgG2a level at 3 to 30 mg/kg, po administered once daily for 49 days starting from onset of disease and measured after 49 days of disease onset by ELISA method; type: functional, organism-based
Mus musculus [8] = test: Antiinflammatory activity in BALB/c mouse assessed as serum IL6 level at 100 mg/kg, po qd for 5 days followed by LPS challenge 1 hr after last compound dose on fifth day and measured 4 hrs post LPS challenge by ELISA method (reference value: 410 +/- 95 pg/mL); type: functional
Mus musculus [9] = test: Antiarthritic activity in BALB/c mouse assessed as reduction in SRBC-induced blood IL2 level administered orally once daily for 14 days measured 4 hrs post last dose by ELISA method; type: functional, organism-based
Mus musculus [10] = test: Antiinflammatory activity in BALB/c mouse assessed as serum TNFalpha level at 10 mg/kg, po qd for 5 days followed by LPS challenge 1 hr after last compound dose on fifth day and measured 4 hrs post LPS challenge by ELISA method (reference value: 717 +/- 218 pg/mL); type: functional
Mus musculus [11] = test: Antiarthritic activity in DBA/1J mouse collagen-induced arthritis model assessed as reduction in anticollagen antibody IgG1 level at 3 to 30 mg/kg, po administered once daily for 49 days starting from onset of disease and measured after 14 days of disease onset by ELISA method; type: functional, organism-based
Mus musculus [12] = test: Antiarthritic activity in DBA/1J mouse collagen-induced arthritis model assessed as reduction in anticollagen antibody IgG1 level at 3 to 30 mg/kg, po administered once daily for 49 days starting from onset of disease and measured after 49 days of disease onset by ELISA method; type: functional, organism-based
Mus musculus [13] = test: Immunosuppressive activity in BALB/c mouse assessed as reduction in SRBC-induced humoral immunity by measuring IgG level at 3 to 30 mg/kg, po administered once daily for 14 days measured 4 hrs post last dose; type: functional, organism-based
THP-1 [14] = test: Inhibition of LPS-induced IL-1beta production in human THP1 cells at 10 uM after 24 hrs; type: functional; details: THP-1, 24 h
Mus musculus [15] = test: Immunosuppressive activity in BALB/c mouse assessed as reduction in SRBC-induced humoral immunity by measuring IgM level at 3 to 30 mg/kg, po administered once daily for 14 days measured 4 hrs post last dose; type: functional, organism-based
[16] = Solubility in PBS buffer; type: physicochemical
Mus musculus [17] = test: Antiinflammatory activity in BALB/c mouse assessed as serum nitric oxide level at 100 mg/kg, po qd for 5 days followed by LPS challenge 1 hr after last compound dose on fifth day and measured 4 hrs post LPS challenge by Griess assay (reference value: 6.95 +/- 1.81 uM); type: functional
[18] = target: Inhibitor of NF-kappa-B kinase (IKK) (Homo sapiens) (UniProt O14920+O15111+Q9Y6K9); test: Inhibition of IKKbeta expression in human THP1 cells at 20 to 100 uM by Western blotting method; type: functional, cell-based; details: THP-1
Mus musculus [19] = test: Antiarthritic activity in DBA/1J mouse collagen-induced arthritis model assessed as reduction in IL-1beta level at 3 to 30 mg/kg, po administered once daily for 49 days starting from onset of disease and measured after 3 to 49 days of disease onset by ELISA method; type: functional, organism-based
Mus musculus [20] = test: Antiarthritic activity in DBA/1J mouse collagen-induced arthritis model assessed as reduction in anticollagen antibody IgG2a level at 3 to 30 mg/kg, po administered once daily for 49 days starting from onset of disease and measured after 14 days of disease onset by ELISA method; type: functional, organism-based
[21] = Solubility in SGF solution; type: physicochemical
[22] = Solubility in SIF solution; type: physicochemical
Mus musculus [23] = test: Antiinflammatory activity in BALB/c mouse assessed as serum TNFalpha level at 100 mg/kg, po qd for 5 days followed by LPS challenge 1 hr after last compound dose on fifth day and measured 4 hrs post LPS challenge by ELISA method (reference value: 717 +/- 218 pg/mL); type: functional
THP-1 [24] = test: Cytotoxicity against human THP1 cells after 48 hrs by MTT assay; type: cell-based; details: THP-1, 48 h
THP-1 [25] = test: Inhibition of LPS-induced nitric oxide production in human THP1 cells at 10 uM after 24 hrs by Griess assay; type: functional; details: THP-1, 24 h
Mus musculus [26] = test: Immunosuppressive activity in BALB/c mouse assessed as reduction in SRBC-induced DTH response at 3 to 30 mg/kg, po administered once daily for 14 days measured 4 hrs post last dose; type: functional, organism-based
Mus musculus [27] = test: Antiarthritic activity in DBA/1J mouse collagen-induced arthritis model assessed as reduction in paw swelling at 30 mg/kg, po administered once daily for 49 days starting from onset of disease; type: functional; details: 1176 h
Mus musculus [28] = test: Antiarthritic activity in BALB/c mouse assessed as reduction in SRBC-induced blood IFNgamma level administered orally once daily for 14 days measured 4 hrs post last dose by ELISA method; type: functional, organism-based
Mus musculus [29] = test: Antiinflammatory activity in BALB/c mouse assessed as serum nitric oxide level at 10 mg/kg, po qd for 5 days followed by LPS challenge 1 hr after last compound dose on fifth day and measured 4 hrs post LPS challenge by Griess assay (reference value: 6.95 +/- 1.81 uM); type: functional
[30] = Therapeutic index, ratio of cytotoxic IC50 for human THP1 cells by MTT assay to IC50 for inhibition of LPS-induced IL6 production in human THP1 cells; type: cell-based, THP-1; details: read-out: Ratio IC50
THP-1 [31] = test: Cytotoxicity against human THP1 cells after 24 hrs by MTT assay; type: cell-based; details: THP-1, 24 h
Mus musculus [32] = test: Antiinflammatory activity in BALB/c mouse assessed as serum IL6 level at 10 mg/kg, po qd for 5 days followed by LPS challenge 1 hr after last compound dose on fifth day and measured 4 hrs post LPS challenge by ELISA method (reference value: 410 +/- 95 pg/mL); type: functional
Mus musculus [33] = test: Antiarthritic activity in DBA/1J mouse collagen-induced arthritis model assessed as reduction in IL6 level at 3 to 30 mg/kg, po administered once daily for 49 days starting from onset of disease and measured after 3 to 49 days of disease onset by ELISA method; type: functional, organism-based

Structure (SMILES): COc1c(O)c(CN2CCN(C)CC2)c2c(c1O)[C@@H]1O[C@H](CO)[C@@H](O)[C@H](O)[C@H]1OC2=O
- inhibition (Mus musculus [5]): Active
- inhibition (Mus musculus [6]): Dose-dependent effect
- inhibition (Mus musculus [7]): Active
- Activity (Mus musculus [8]): 58 pg/mL
- inhibition (Mus musculus [9]): Dose-dependent effect
- Activity (Mus musculus [10]): 672 pg/mL
- inhibition at 10 µM [1]: 36.9%
- solubility [2]: > 1.5 mg/mL
- inhibition at 10 µM (B-cell): 49%
- inhibition (Mus musculus [11]): Active
- inhibition (Mus musculus [12]): Active
- inhibition (Mus musculus [13]): Active
- inhibition at 10 µM (THP-1 [14]): 41%
- inhibition (Mus musculus [15]): Active
- solubility [16]: > 1.5 mg/mL
- Activity (Mus musculus [17]): 1.24 µM
- inhibition [18]: Active
- inhibition (Mus musculus [19]): Active
- inhibition (Mus musculus [20]): Active
- solubility [21]: > 1.5 mg/mL
- solubility [22]: > 1.5 mg/mL
- Activity (Mus musculus [23]): 398 pg/mL
- IC50 (THP-1 [24]): 68 µM
- inhibition at 10 µM (THP-1 [25]): 41%
- inhibition (Mus musculus [26]): Active
- inhibition in vivo at 30 mg/kg (Mus musculus [27]): 28%
- inhibition (Mus musculus [28]): Dose-dependent effect
- Activity (Mus musculus [29]): 2.87 µM
- selectivity ratio [30]: > 400
- IC50 (THP-1 [31]): 107 µM
- Activity (Mus musculus [32]): 282 pg/mL
- IC50 (THP-1 [3]): > 30 µM
- inhibition (Mus musculus [33]): Active
- IC50 (THP-1 [4]): 0.141 µM

Structure (SMILES): COc1c(O)c(CN2CCCCC2)c2c(c1O)[C@@H]1O[C@H](CO)[C@@H](O)[C@H](O)[C@H]1OC2=O
- inhibition at 10 µM [1]: 13%
- solubility [2]: > 1.5 mg/mL
- inhibition at 10 µM (B-cell): 34.8%
- IC50 (THP-1 [3]): > 30 µM
- IC50 (THP-1 [4]): 0.317 µM

Structure (SMILES): COc1c(O)c(CN2CCC(c3ccccc3)CC2)c2c(c1O)[C@@H]1O[C@H](CO)[C@@H](O)[C@H](O)[C@H]1OC2=O
- inhibition at 10 µM [1]: 37.2%
- solubility [2]: > 1.5 mg/mL
- inhibition at 10 µM (B-cell): 28.2%
- IC50 (THP-1 [3]): > 30 µM
- IC50 (THP-1 [4]): 0.351 µM

Structure (SMILES): CCOC(=O)N1CCN(Cc2c(O)c(OC)c(O)c3c2C(=O)O[C@@H]2[C@@H](O)[C@H](O)[C@@H](CO)O[C@@H]32)CC1
- inhibition at 10 µM [1]: 27%
- solubility [2]: > 1.5 mg/mL
- inhibition at 10 µM (B-cell): 9%
- IC50 (THP-1 [3]): > 30 µM
- IC50 (THP-1 [4]): 0.177 µM

Structure (SMILES): COc1c(O)c(CN(C)C)c2c(c1O)[C@@H]1O[C@H](CO)[C@@H](O)[C@H](O)[C@H]1OC2=O
- inhibition at 10 µM [1]: 21.1%
- solubility [2]: > 1.5 mg/mL
- inhibition at 10 µM (B-cell): 44%
- IC50 (THP-1 [3]): > 30 µM
- IC50 (THP-1 [4]): 0.211 µM

Further lines, with some results ahead:

- solubility [2]: > 1.5 mg/mL
- IC50 (THP-1 [3]): > 30 µM
- IC50 (THP-1 [4]): 0.322 µM
Structure (SMILES): COc1c(O)c(CN2C[C@@H](O)CC2C(=O)O)c2c(c1O)[C@@H]1O[C@H](CO)[C@@H](O)[C@H](O)[C@H]1OC2=O (some centres undefined)
- inhibition at 10 µM [1]: 6.5%
- inhibition at 10 µM (B-cell): 11.4%

- solubility [2]: > 1.5 mg/mL
- IC50 (THP-1 [3]): 25.5 µM
- IC50 (THP-1 [4]): 0.918 µM
Structure (SMILES): COc1c(O)c(CN2CCC[C@H]2C(=O)O)c2c(c1O)[C@@H]1O[C@H](CO)[C@@H](O)[C@H](O)[C@H]1OC2=O
- inhibition at 10 µM [1]: 17.3%
- inhibition at 10 µM (B-cell): 28.2%

- solubility [2]: > 1.5 mg/mL
- IC50 (THP-1 [3]): 13.5 µM
- IC50 (THP-1 [4]): 0.745 µM
Structure (SMILES): COc1c(O)c(CN2CCC[C@H]2CO)c2c(c1O)[C@@H]1O[C@H](CO)[C@@H](O)[C@H](O)[C@H]1OC2=O
- inhibition at 10 µM [1]: 37.5%
- inhibition at 10 µM (B-cell): 31.6%
